# How the values were obtained:
# [1] = test system: thoracic aorta rings of Wistar rat; test: Vascular protective effects with respect to endothelial dysfunction caused by an inhibitor of NOS (LNA), aortic rings; details: compound at 10^-7 M, LNA 3x10^-7 M, relaxation due to ACh
# Text: Under standard in vitro conditions, relaxation of aortic rings caused by acetylcholine (ACh), which relaxation is entirely dependent on the presence of endothelium, reflects the production of NO (stimulated by ACh), which, by diffusing to smooth muscle cells, brings about arterial relaxation (Nature, 1980, 288, 373).
# the first model consists of causing inhibition of the relaxation due to ACh by blocking the enzymatic activity (endothelial NOS) responsible for the production of NO;
# The thoracic aorta of a Wistar rat (325-375 g), anaesthetised by the intraperitoneal route using pentobarbital sodium (30 mg/kg), is removed and dissected into rings having a length of 3 mm. Each ring is suspended from an isometric tension sensor connected to a recording system and the initial tension applied is 2.5 g. […]
# After a 90-minute stabilisation period, the preparations are contracted using phenylephrine (PHE 10^−6 M) and relaxed by adding 10^−5 M of acetylcholine in order to verify the integrity of the endothelial layer. […] The preparations are again contracted using phenylephrine and, after 30 minutes, the relaxations due to acetylcholine (ACh-10^−8 M to 10^−5 M) are assessed in the presence of indomethacin (10^−5 M).
# The relaxation values are expressed as a percentage relative to the maximum contraction caused by PHE. […]
# [2] = test system: aortic rings of New Zealand rabbits; test: Protective vascular effects with respect to endothelial dysfunction caused by a system generating O2- (XO-Hypo), aortic rings; details: compound at 10^-7 M; XO 3 mU/ml, Hypo 10^-4 M; rabbit aortic rings
# rat aortic rings = test: Aortic production of cGMP stimulated by ACh in the presence of LNA; details: compound at 3x10 -M (so in the source), 30-minute incubation, ACh 10^-5 M 1 minute, LNA 3x10^-6 M
# Protocol: By diffusing to the smooth muscle cells, the NO produced by the endothelial cells activates soluble guanylate cyclase, which brings about an increase in cyclic GMP, which is responsible for relaxation.
# The rat aortic rings are prepared as previously. The effects of 30-minute incubation of compounds of the invention at different concentrations are assessed on the production of cGMP stimulated by ACh (10^−5 M—1 minute) in the presence of LNA (3×10^−6 M). The said experiments are carried out in the presence of isobutylmethylxanthine (10^−5 M) in order to avoid degradation of the cGMP by phosphodiesterases. The rings are frozen in liquid nitrogen and maintained at −80° C. until the assay is carried out. The cGMP content is assessed by radioimmunoassay and expressed in relation to the amount of proteins contained in the tissue (assay by the Bradford method).
compound,measurement,setting,value
"O=c1c(NCCN2CCC(COc3ccccc3)CC2)c(N2CCc3ccccc32)c1=O [Example 5, 3-(2,3-Dihydro-1H-indol-1-yl)-4-({2-[4-(Phenoxymethyl)-1-piperidinyl]-ethyl}amino)-3-cyclobutene-1,2-dione and its methanesulphonate]",inhibition of the endothelial dysfunction caused by LNA,[1],27%
same,inhibition of the endothelial dysfunction caused by the XO-Hypo combination,[2],17%
same,increase of the production of cGMP stimulated by ACh in the presence of LNA,rat aortic rings,39%

# Source: US20020065419A1, “Cyclobutenedione compounds” (priority 2000, published 2002)
